Laboratory results taken from patent publication US20250368668A1, “CRYSTALLINE FORMS AND SALT FORMS OF A CARDIAC P2X RECEPTOR AGONIST, PHARMACEUTICAL COMPOSITIONS, AND THEIR USE IN TREATING MEDICAL DISORDERS” (Cornovus Pharmaceuticals, Inc., priority 2024, published 2025).

How the values were obtained:
Assay type in all cases: physicochemical
[1] = Solid-state stability of crystalline form on storage (form checked by X-ray powder diffraction); details: for crystalline form after extended storage: X-ray powder diffraction
Protocol: A sample of Form A crystalline hydrate of Compound I was subjected to stability analysis for 1 week at a temperature of 25° C. at 60% relative humidity.
Stability of Form B crystalline hydrate of compound I to extended storage was evaluated by storing samples of Form B crystalline hydrate of compound I for twelve months at either 5° C. or 25° C., and then subjecting samples of the stored material to X-ray powder diffraction analytical analysis.

[2] = Solubility in water of sodium salts of Compound I; details: read-out: Aqueous Solubility of Sodium Salt Form of Compound I
Protocol: Sodium salts of Compound I described herein above were tested for solubility in water.

[3] = Hygroscopicity by dynamic vapor sorption
Protocol: Form A crystalline hydrate of compound I was analyzed by X-ray powder diffraction, thermogravimetric analysis, dynamic vapor sorption (to analyze hygroscopicity), and Karl Fischer titration.
The title compound was analyzed for hygroscopicity by dynamic vapor sorption.

## Nc1nc(Cl)nc2c1ncn2[C@H]1[C@H](O)[C@H](O)[C@]2(COP(=O)(O)O)C[C@H]12 [Form B crystalline hydrate of compound I]
[1]; comparison with Form A hydrate and crystalline sodium salt forms
  relative stability of crystalline forms: more stable than Form A of crystalline hydrate of compound I and more stable than the crystalline sodium salt forms of compound I
[1]; twelve months at 5° C.
  crystalline form after extended storage: remain as Form B crystalline hydrate of compound I
[1]; twelve months at 25° C.
  crystalline form after extended storage: remain as Form B crystalline hydrate of compound I

## Nc1nc(Cl)nc2c1ncn2[C@H]1[C@H](O)[C@H](O)[C@]2(COP(=O)(O)O)C[C@H]12 [Compound I, ((1R,2R,3S,4R,5S)-4-(6-amino-2-chloro-9H-purin-9-yl)-2,3-dihydroxybicyclo[3.1.0]hexan-1-yl)methyl dihydrogen phosphate]
[2]
  solubility: 3000 µg/mL

## Nc1nc(Cl)nc2c1ncn2[C@H]1[C@H](O)[C@H](O)[C@]2(COP(=O)(O)O)C[C@H]12 [Form A crystalline hydrate of Compound I]
[1]; 1 week, 25° C., 60% relative humidity
  crystalline form at the end of the stability study: converted to Form B crystalline hydrate of Compound I
[3]; absorption step, FIG. 3, in %
  increase in weight during the absorption step: 5.2100
[3]; desorption step, FIG. 3
  weight loss during the desorption step: 5.16%
